Legend:
[1] = molecular target: Neuronal acetylcholine receptor subunit alpha-7 (Rattus norvegicus, UniProt Q05941); assay: Binding affinity towards alpha-7 neuronal nicotinic acetylcholine receptor (nAChRs) measured by using the inhibition of [3H]-MLA binding to whole brain membrane
[2] = molecular target: Neuronal acetylcholine receptor; alpha4/beta2 (Rattus norvegicus, UniProt P09483+P12390); assay: Binding affinity towards alpha4-beta2 measured by using the inhibition of [3H]NIC binding to rat striatal membrane; parameters: species or system Striatum
Neuronal acetylcholine receptor; alpha4/beta2, sequence (P09483 whole entry): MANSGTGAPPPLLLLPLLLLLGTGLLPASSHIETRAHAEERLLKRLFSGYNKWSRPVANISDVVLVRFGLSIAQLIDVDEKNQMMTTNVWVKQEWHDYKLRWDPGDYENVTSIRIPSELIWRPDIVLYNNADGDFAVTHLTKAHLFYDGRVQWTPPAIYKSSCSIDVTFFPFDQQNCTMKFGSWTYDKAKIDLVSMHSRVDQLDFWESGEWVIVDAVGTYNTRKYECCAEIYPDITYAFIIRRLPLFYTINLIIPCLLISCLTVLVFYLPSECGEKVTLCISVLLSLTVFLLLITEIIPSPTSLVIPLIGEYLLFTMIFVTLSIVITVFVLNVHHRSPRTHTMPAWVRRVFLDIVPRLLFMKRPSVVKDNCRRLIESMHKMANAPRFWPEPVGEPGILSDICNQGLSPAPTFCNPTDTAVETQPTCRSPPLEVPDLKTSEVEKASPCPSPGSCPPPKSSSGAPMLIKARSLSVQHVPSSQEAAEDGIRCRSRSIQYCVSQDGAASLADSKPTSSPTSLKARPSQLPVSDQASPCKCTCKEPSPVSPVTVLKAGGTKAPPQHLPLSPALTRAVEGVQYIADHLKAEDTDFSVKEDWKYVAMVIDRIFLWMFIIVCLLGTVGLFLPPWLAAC
Neuronal acetylcholine receptor; alpha4/beta2, sequence (P12390 whole entry): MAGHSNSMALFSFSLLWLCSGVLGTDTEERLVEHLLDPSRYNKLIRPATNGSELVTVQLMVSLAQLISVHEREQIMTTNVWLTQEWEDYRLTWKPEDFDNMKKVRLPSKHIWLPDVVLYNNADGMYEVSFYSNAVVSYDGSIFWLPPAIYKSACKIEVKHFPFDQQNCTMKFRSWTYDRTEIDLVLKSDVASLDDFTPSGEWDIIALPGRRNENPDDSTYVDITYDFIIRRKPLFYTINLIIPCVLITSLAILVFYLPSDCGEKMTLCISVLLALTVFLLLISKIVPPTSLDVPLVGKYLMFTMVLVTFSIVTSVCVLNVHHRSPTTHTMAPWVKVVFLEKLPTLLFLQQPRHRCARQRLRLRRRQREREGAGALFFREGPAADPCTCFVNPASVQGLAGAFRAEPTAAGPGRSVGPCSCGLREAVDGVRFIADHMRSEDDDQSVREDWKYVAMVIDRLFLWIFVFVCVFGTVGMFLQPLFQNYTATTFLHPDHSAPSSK

Neuronal acetylcholine receptor subunit alpha-7, sequence (Q05941 whole entry): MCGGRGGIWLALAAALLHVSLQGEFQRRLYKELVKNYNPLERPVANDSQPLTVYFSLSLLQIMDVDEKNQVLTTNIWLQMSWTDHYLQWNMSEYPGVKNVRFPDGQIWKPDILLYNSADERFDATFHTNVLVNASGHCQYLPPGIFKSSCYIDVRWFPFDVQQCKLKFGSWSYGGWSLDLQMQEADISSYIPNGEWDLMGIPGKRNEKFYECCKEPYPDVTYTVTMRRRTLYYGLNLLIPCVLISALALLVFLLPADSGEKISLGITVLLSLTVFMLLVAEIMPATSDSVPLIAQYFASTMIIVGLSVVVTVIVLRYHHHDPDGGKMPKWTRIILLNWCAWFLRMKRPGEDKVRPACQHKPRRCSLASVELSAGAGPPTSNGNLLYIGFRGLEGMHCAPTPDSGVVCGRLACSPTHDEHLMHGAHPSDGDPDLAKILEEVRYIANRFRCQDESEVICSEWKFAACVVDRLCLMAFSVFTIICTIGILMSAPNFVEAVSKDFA

| SMILES | Ki [1] [µM] | Ki [2] [µM] |
| --- | --- | --- |
| CN1CCC[C@H]1CN1CCN(Cc2cccnc2)CC1 | > 100 |  |
| O=C([C@@H]1CCCN1)N1CCN(Cc2ccccn2)CC1 | > 100 | > 100 |
| CN1CCC[C@H]1CN1CCN(Cc2ccncc2)CC1 | > 100 | 38.9 |
| c1cncc(CN2CCN(C[C@@H]3CCCN3)CC2)c1 | > 100 | > 100 |
| c1cc(CN2CCN(C[C@@H]3CCCN3)CC2)ccn1 | > 100 | 46 |
| O=C(C1CCCCN1)N1CCN(Cc2ccncc2)CC1 (racemic) | > 100 | 60.5 |
| CN1CCCCC1CN1CCN(Cc2cccnc2)CC1 (racemic) | > 100 |  |
| O=C(C1CCCCN1)N1CCN(Cc2ccccn2)CC1 (racemic) | > 100 | > 100 |
| CN1CCCCC1CN1CCN(Cc2ccncc2)CC1 (racemic) | > 100 | 42 |
| c1cncc(CN2CCN(CC3CCCCN3)CC2)c1 (racemic) | > 100 | > 100 |
| c1cc(CN2CCN(CC3CCCCN3)CC2)ccn1 (racemic) | > 100 | > 100 |
| O=C(C1CCCCN1)N1CCN(Cc2cccnc2)CC1 (racemic) [SCR01020] | > 100 | 54.8 |
| c1cncc([C@@H]2CCCN2)c1 [NORNICOTINE] | 1.19 |  |

Reference: ChEMBL document CHEMBL1136369, “N,N-disubstituted piperazines: synthesis and affinities at alpha4beta2(*) and alpha7(*) neuronal nicotinic acetylcholine receptors” (Bioorg Med Chem Lett, 2003)
